Molecular target: 11β-HSD1 (Homo sapiens, UniProt P28845)
Assay: Inhibition of a microsomal preparation of 11β-HSD1, scintillation proximity assay
Format: biochemical
Parameters: expressed in transfected cells; host or cells: CHO cells (microsomes)
Details: microsomes from CHO cells overexpressing human 11β-HSD1; for inhibition at 0.1 µM: at 100 nM
Description: All reactions were carried out at rt in 96 well clear flexible PET Microbeta plates (PerkinElmer). […] After a 10 minute pre-incubation, 50 μL of enzyme solution containing microsomes isolated from CHO cells overexpressing human 11β-HSD1 (10-20 μg/ml of total protein) was added, and the plates were incubated for 90 minutes at rt. The reaction was stopped by adding 50 μl of the SPA beads suspension containing 10 μM 18β-glycyrrhetinic acid, 5 mg/ml protein A coated YSi SPA beads (GE Healthcare) and 3.3 μg/ml of anti-cortisol antibody (East Coast Biologics) in Superblock buffer (Bio-Rad). The plates were shaken for 120 minutes at rt, and the SPA signal corresponding to [^3H]cortisol was measured on a Microbeta plate reader.

Chain of 11β-HSD1 (P28845 whole entry): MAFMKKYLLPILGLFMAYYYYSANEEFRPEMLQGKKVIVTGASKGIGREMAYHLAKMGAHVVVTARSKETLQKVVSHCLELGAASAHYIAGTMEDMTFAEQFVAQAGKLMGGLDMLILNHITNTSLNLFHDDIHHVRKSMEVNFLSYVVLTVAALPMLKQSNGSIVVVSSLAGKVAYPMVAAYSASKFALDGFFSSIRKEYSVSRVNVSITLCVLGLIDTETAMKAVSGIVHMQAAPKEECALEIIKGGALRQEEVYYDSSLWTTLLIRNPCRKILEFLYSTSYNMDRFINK

`C[C@@H](c1ccc(C#Cc2ccccn2)cc1)N1CC[C@](CC(C)(C)O)(c2ccccc2)OC1=O` [Example 9, (S)-6-(2-hydroxy-2-methylpropyl)-6-phenyl-3-((S)-1-(4-(pyridin-2-ylethynyl)phenyl)ethyl)-1,3-oxazinan-2-one] was tested, and the inhibition at 0.1 µM was 96.6% and the IC50 was 1 nM.
`C[C@@H](c1ccc(C#CC(C)(C)C(=O)NC2CC2)cc1)N1CC[C@](CC(C)(C)O)(c2ccccc2)OC1=O` [Example 7, N-cyclopropyl-4-(4-((S)-1-((S)-6-(2-hydroxy-2-methylpropyl)-2-oxo-6-phenyl-1,3-oxazinan-3-yl)ethyl)phenyl)-2,2-dimethylbut-3-ynamide] was tested, and the inhibition at 0.1 µM was 93.5% and the IC50 was 5.2 nM.
`C[C@@H](c1ccc(C#CC(C)(C)N2CCOC2=O)cc1)N1CC[C@](CC(C)(C)O)(c2ccccc2)OC1=O` [Example 3, (S)-6-(2-hydroxy-2-methylpropyl)-3-((S)-1-(4-(3-methyl-3-(2-oxooxazolidin-3-yl)but-1-ynyl)phenyl)ethyl)-6-phenyl-1,3-oxazinan-2-one] gave an inhibition at 0.1 µM of 99.8% and an IC50 of 1.1 nM.
Molecule `C[C@@H](c1ccc(C#CC(C)(C)NC(N)=O)cc1)N1CC[C@](CC(C)(C)O)(c2ccccc2)OC1=O` [Example 19, 1-(4-(4-((S)-1-((S)-6-(2-hydroxy-2-methylpropyl)-2-oxo-6-phenyl-1,3-oxazinan-3-yl)ethyl)phenyl)-2-methylbut-3-yn-2-yl)urea] has an inhibition at 0.1 µM of 97.6% and an IC50 of 2.4 nM.
`CC(=O)NC(C)(C)C#Cc1ccc([C@H](C)N2CC[C@](CC(C)(C)O)(c3ccccc3)OC2=O)cc1` [Example 17, N-(4-(4-((S)-1-((S)-6-(2-hydroxy-2-methylpropyl)-2-oxo-6-phenyl-1,3-oxazinan-3-yl)ethyl)phenyl)-2-methylbut-3-yn-2-yl)acetamide] was tested, and the inhibition at 0.1 µM was 84.9% and the IC50 was 11.9 nM.
`CNC(=O)NC(C)(C)C#Cc1ccc([C@H](C)N2CC[C@](CC(C)(C)O)(c3ccccc3)OC2=O)cc1` [Example 20, 1-(4-(4-((S)-1-((S)-6-(2-hydroxy-2-methylpropyl)-2-oxo-6-phenyl-1,3-oxazinan-3-yl)ethyl)phenyl)-2-methylbut-3-yn-2-yl)-3-methylurea] showed an inhibition at 0.1 µM of 92.2% and an IC50 of 4.2 nM.
Work on `C[C@@H](c1ccc(C#CC(C)(C)C(=O)N(C)C)cc1)N1CC[C@](CC(C)(C)O)(c2ccccc2)OC1=O` [Example 5, 4-(4-((S)-1-((S)-6-(2-hydroxy-2-methylpropyl)-2-oxo-6-phenyl-1,3-oxazinan-3-yl)ethyl)phenyl)-N,N,2,2-tetramethylbut-3-ynamide] yielded an inhibition at 0.1 µM of 97% and an IC50 of 1.1 nM.
`C[C@@H](c1ccc(C#CC2(O)CCCC2)cc1)N1CC[C@](CC(C)(C)O)(c2ccccc2)OC1=O` [Example 2, (S)-6-(2-hydroxy-2-methylpropyl)-3-((S)-1-(4-((1-hydroxycyclopentyl)ethynyl)phenyl)ethyl)-6-phenyl-1,3-oxazinan-2-one] showed an inhibition at 0.1 µM of 89.1% and an IC50 of 1.9 nM.
`C[C@@H](c1ccc(C#CC(C)(C)NC(=O)N(C)C)cc1)N1CC[C@](CC(C)(C)O)(c2ccccc2)OC1=O` [Example 23, 3-(4-(4-((S)-1-((S)-6-(2-hydroxy-2-methylpropyl)-2-oxo-6-phenyl-1,3-oxazinan-3-yl)ethyl)phenyl)-2-methylbut-3-yn-2-yl)-1,1-dimethylurea] was tested, and the inhibition at 0.1 µM was 86% and the IC50 was 12.3 nM.
`COC(=O)N1CC(O)(C#Cc2ccc([C@H](C)N3CC[C@](CC(C)(C)O)(c4ccccc4)OC3=O)cc2)C1` [Example 26, Methyl 3-hydroxy-3-((4-((S)-1-((S)-6-(2-hydroxy-2-methylpropyl)-2-oxo-6-phenyl-1,3-oxazinan-3-yl)ethyl)phenyl)ethynyl)azetidine-1-carboxylate] gave an inhibition at 0.1 µM of 95.9% and an IC50 of 2.8 nM.
Molecule `COC(=O)OC1(C#Cc2ccc([C@H](C)N3CC[C@](CC(C)(C)O)(c4ccccc4)OC3=O)cc2)CN(C(=O)OC)C1` [Example 27, Methyl 3-((4-((S)-1-((S)-6-(2-hydroxy-2-methylpropyl)-2-oxo-6-phenyl-1,3-oxazinan-3-yl)ethyl)phenyl)ethynyl)-3-(methoxycarbonyloxy)azetidine-1-carboxylate] has an inhibition at 0.1 µM of 95.8% and an IC50 of 2.4 nM.
Work on `C[C@@H](c1ccc(C#CC(C)(C)N)cc1)N1CC[C@](CC(C)(C)O)(c2ccccc2)OC1=O` [Example 12, (S)-3-((S)-1-(4-(3-amino-3-methylbut-1-ynyl)phenyl)ethyl)-6-(2-hydroxy-2-methylpropyl)-6-phenyl-1,3-oxazinan-2-one] yielded an inhibition at 0.1 µM of 63.7% and an IC50 of 53.4 nM.
Molecule `C[C@@H](c1ccc(C#Cc2cc[nH]c(=O)c2)cc1)N1CC[C@](CC(C)(C)O)(c2ccccc2)OC1=O` [Example 29, (S)-6-(2-hydroxy-2-methylpropyl)-3-((S)-1-(4-((2-oxo-1,2-dihydropyridin-4-yl)ethynyl)phenyl)ethyl)-6-phenyl-1,3-oxazinan-2-one] has an inhibition at 0.1 µM of 97.9% and an IC50 of 1.4 nM.
Molecule `C[C@@H](c1ccc(C#CC(C)(C)NC(=O)C2CC2)cc1)N1CC[C@](CC(C)(C)O)(c2ccccc2)OC1=O` [Example 8, N-(4-(4-((S)-1-((S)-6-(2-hydroxy-2-methylpropyl)-2-oxo-6-phenyl-1,3-oxazinan-3-yl)ethyl)phenyl)-2-methylbut-3-yn-2-yl)cyclopropanecarboxamide] has an inhibition at 0.1 µM of 92.2% and an IC50 of 7.5 nM.
Work on `CC(=O)NC1(C#Cc2ccc([C@H](C)N3CC[C@](CC(C)(C)O)(c4ccccc4)OC3=O)cc2)CCCCC1` [Example 14, N-(1-((4-((S)-1-((S)-6-(2-hydroxy-2-methylpropyl)-2-oxo-6-phenyl-1,3-oxazinan-3-yl)ethyl)phenyl)ethynyl)cyclohexyl)acetamide] yielded an inhibition at 0.1 µM of 89.8% and an IC50 of 4.2 nM.
For `C[C@@H](c1ccc(C#CC2(O)CCOCC2)cc1)N1CC[C@](CC(C)(C)O)(c2ccccc2)OC1=O` [Example 10, (S)-6-(2-hydroxy-2-methylpropyl)-3-((S)-1-(4-((4-hydroxytetrahydro-2H-pyran-4-yl)ethynyl)phenyl)ethyl)-6-phenyl-1,3-oxazinan-2-one], the inhibition at 0.1 µM was 84.7% and the IC50 was 6.9 nM.
`COc1cc(C#Cc2ccc([C@H](C)N3CC[C@](CC(C)(C)O)(c4ccccc4)OC3=O)cc2)ccn1` [Example 28, (S)-6-(2-hydroxy-2-methylpropyl)-3-((S)-1-(4-((2-methoxypyridin-4-yl)ethynyl)phenyl)ethyl)-6-phenyl-1,3-oxazinan-2-one] was tested, and the inhibition at 0.1 µM was 103% and the IC50 was 1.7 nM.
In the case of `C[C@@H](c1ccc(C#CC2(O)CNC2)cc1)N1CC[C@](CC(C)(C)O)(c2ccccc2)OC1=O` [Example 24, (S)-6-(2-hydroxy-2-methylpropyl)-3-((S)-1-(4-((3-hydroxyazetidin-3-yl)ethynyl)phenyl)ethyl)-6-phenyl-1,3-oxazinan-2-one], the inhibition at 0.1 µM is reported as 56.1% and the IC50 is reported as 62.3 nM.
`C[C@@H](c1ccc(C#CC2(NC(N)=O)CCCCC2)cc1)N1CC[C@](CC(C)(C)O)(c2ccccc2)OC1=O` [Example 16, 1-(1-((4-((S)-1-((S)-6-(2-hydroxy-2-methylpropyl)-2-oxo-6-phenyl-1,3-oxazinan-3-yl)ethyl)phenyl)ethynyl)cyclohexyl)urea] gave an inhibition at 0.1 µM of 95.6% and an IC50 of 3.1 nM.
For `CC(=O)N1CC(O)(C#Cc2ccc([C@H](C)N3CC[C@](CC(C)(C)O)(c4ccccc4)OC3=O)cc2)C1` [Example 25, (S)-3-((S)-1-(4-((1-acetyl-3-hydroxyazetidin-3-yl)ethynyl)phenyl)ethyl)-6-(2-hydroxy-2-methylpropyl)-6-phenyl-1,3-oxazinan-2-one], the inhibition at 0.1 µM was 94.1% and the IC50 was 3.6 nM.
Work on `COC(=O)NC1(C#Cc2ccc([C@H](C)N3CC[C@](CC(C)(C)O)(c4ccccc4)OC3=O)cc2)CCCCC1` [Example 15, Methyl 1-((4-((S)-1-((S)-6-(2-hydroxy-2-methylpropyl)-2-oxo-6-phenyl-1,3-oxazinan-3-yl)ethyl)phenyl)ethynyl)cyclohexylcarbamate] yielded an inhibition at 0.1 µM of 92.4% and an IC50 of 2.4 nM.
`C[C@@H](c1ccc(C#CC2(O)CCN(C)CC2)cc1)N1CC[C@](CC(C)(C)O)(c2ccccc2)OC1=O` [Example 11, (S)-3-((S)-1-(4-((4-hydroxy-1-methylpiperidin-4-yl)ethynyl)phenyl)ethyl)-6-(2-hydroxy-2-methylpropyl)-6-phenyl-1,3-oxazinan-2-one] was tested, and the inhibition at 0.1 µM was 50.5% and the IC50 was 86.3 nM.
`C[C@@H](c1ccc(C#CC(C)(C)C(=O)O)cc1)N1CC[C@](CC(C)(C)O)(c2ccccc2)OC1=O` [Example 4, 4-(4-((S)-1-((S)-6-(2-hydroxy-2-methylpropyl)-2-oxo-6-phenyl-1,3-oxazinan-3-yl)ethyl)phenyl)-2,2-dimethylbut-3-ynoic acid] was tested, and the inhibition at 0.1 µM was 86% and the IC50 was 13.4 nM.
For `C[C@@H](c1ccc(C#CC2(N)CCCCC2)cc1)N1CC[C@](CC(C)(C)O)(c2ccccc2)OC1=O` [Example 13, (S)-3-((S)-1-(4-((1-aminocyclohexyl)ethynyl)phenyl)ethyl)-6-(2-hydroxy-2-methylpropyl)-6-phenyl-1,3-oxazinan-2-one], the inhibition at 0.1 µM was 82.5% and the IC50 was 12.4 nM.
With `C[C@@H](c1ccc(C#CC(C)(C)NS(C)(=O)=O)cc1)N1CC[C@](CC(C)(C)O)(c2ccccc2)OC1=O` [Example 21, N-(4-(4-((S)-1-((S)-6-(2-hydroxy-2-methylpropyl)-2-oxo-6-phenyl-1,3-oxazinan-3-yl)ethyl)phenyl)-2-methylbut-3-yn-2-yl)methanesulfonamide] the inhibition at 0.1 µM was 93.7% and the IC50 was 3.4 nM.

Source: US8883778B2, “Cyclic inhibitors of 11 beta-hydroxysteroid dehydrogenase 1” (Vitae Pharmaceuticals, Inc., priority 2009, dated 2014)
